The test system of data set [1] is human head and neck cancer (HNC) lines. Nature of the data set: Xenograft studies: CRT anti-tumor response. The class given is in vivo.
Data set [2] deals with patients receiving CT/RT for head and neck cancer. Put plainly: Phase 2 trial: safety and tolerability. In kind it is in vivo, human. The settings on record: 0.02 or 0.1 mg/kg on each radiation day for up to 7 weeks. The text has this:
OM is a painful, debilitating, and costly toxicity of different chemoradiotherapy (CT/RT) regimens used to treat head and neck cancer. This trial is a phase 2, randomized, double-blind, dose-ranging, placebo-controlled three-arm study in patients receiving CT/RT for the treatment of head and neck cancer, to assess the safety and tolerability of γ-D-glutamyl-L-tryptophan (SCV-07) as well as its efficacy in delaying the onset of severe OM as assessed by the WHO Oral Mucositis Scale.
59 eligible patients with recently diagnosed, treatment naïve, pathologically-confirmed, non-metastatic squamous cell carcinoma of the oral cavity, oropharynx, hypopharynx or larynx were enrolled and treated with a concomitant regimen of CT/RT consisting of a continuous course of external beam irradiation (IMRT eligible) with a minimum cumulative dose of 50 Gray (Gy) and cisplatin monotherapy administered using standard weekly or tri-weekly dosing regimens (80-100 mg/m^2 administered on Days 0, 21 and 42) or weekly (30-40 mg/m^2). At least two ‘at risk’ intraoral sites were included in the radiation fields and received a cumulative RT dose of at least 50 Gy. Subjects were equally randomized to receive either placebo or one of two doses of γ-D-glutamyl-L-tryptophan (0.02 or 0.1 mg/kg) on each radiation day for up to 7 weeks.

SMILES strings stand for the structures.

1 compound from patent US20110245316A1, “PREVENTION OR DELAY OF ONSET OF ORAL MUCOSITIS” (SCICLONE PHARMACEUTICALS, INC., priority 2010, published 2011) can be followed below.

Turning to `N[C@H](CCC(=O)N[C@@H](Cc1c[nH]c2ccccc12)C(=O)O)C(=O)O` [SCV-07, γ-D-glutamyl-L-tryptophan], in data set [1], the “impact on CRT anti-tumor response” value is “did not impact CRT anti-tumor response”. Also, the safety and tolerability result is “safe and well tolerated with no drug-related serious adverse events reported” in data set [2]; “safe and well tolerated” in data set [2] (listed as γ-D-glutamyl-L-tryptophan).
